# According to patent publication US5216022A, “Aromatic esters of phenylenedialkanoates as inhibitors of human neutrophil elastase” (Cortech, Inc., priority 1991, dated 1993):
# Biological target: T1, human neutrophil elastase (HNE) (Homo sapiens, UniProt P08246)
# T1 sequence (P08246 30-267): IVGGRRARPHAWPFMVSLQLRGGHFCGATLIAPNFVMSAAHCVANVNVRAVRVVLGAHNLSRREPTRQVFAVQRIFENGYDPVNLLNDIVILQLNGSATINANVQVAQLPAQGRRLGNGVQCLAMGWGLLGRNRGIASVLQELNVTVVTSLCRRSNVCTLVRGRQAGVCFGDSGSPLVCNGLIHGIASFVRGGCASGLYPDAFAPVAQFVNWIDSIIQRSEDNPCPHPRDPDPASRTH
# Assay: Potency (IC50 determination) against human neutrophil elastase, chromogenic substrate N-methoxysuccinyl-ala-ala-pro-val-pNA, 405 nm
# Type: biochemical
# Details: pH 7.7, 7 min incubation at room temperature
# Procedure: A) 0.075M sodium phosphate, 20% dimethyl sulfoxide (DMSO),pH 7.7=substrate and inhibitor buffer
# B) 0.075M sodium phosphate no DMSO,pH7.7=inhibitor buffer
# C) 10 mM human neutrophil elastase (HNE) substrate=N-methoxysuccinyl-ala-ala-pro-val-pNA in DMSO
# D) 0.01 sodium acetate, pH 5.5=enzyme buffer (storage)
# E) HNE (1 mg) dissolved in 1 mL of […] for storage at -20° C.
# Make a 10 mM stock of the inhibitor in DMSO. Dilute an aliquot (10 μL) up to 1.0 mL in reagent A (100 μM). Serially dilute 100 μL of the 100 μM in reagent A. Apply 100 μL of the diluted material to the wells of a 96-well plate. Dilute an aliquot of reagent F 1:150 in reagent D, apply 50 μL aliquots to the indicator wells and incubate 7 minutes at room temperature.
# The HNE substrate solution is made by taking 100 μl of reagent C into 500 μL of reagent A and 400 μL of reagent B. After the 7 minutes of incubation, the substrate (50 μL) is applied to each well. The HNE catalyzed reaction is then monitored spectrophotometrically at 405 nm using an ELISA plate reader machine (UVMAX, Molecular Devices) which processes the raw data with an on-board kinetics program. The enzyme activity is plotted against different inhibitor concentrations and IC50 value is determined by using a curve fitting software program.
row,IC50 [nM],SMILES
1,8440,"CCC(C(=O)Oc1ccc(SC)cc1)c1ccc(C(CC)C(=O)Oc2ccc(SC)cc2)cc1 (stereo not drawn) [Compound 1, Bis(4-Methylmercaptophenyl)2'-(1,4-phenylene)dibutyrate]"
2,224,CCC(C(=O)Oc1ccc([S+](C)[O-])cc1)c1ccc(C(CC)C(=O)Oc2ccc([S+](C)[O-])cc2)cc1 (stereo not drawn) [Compound 2]
3,62,CCC(C(=O)Oc1ccc(S(C)(=O)=O)cc1)c1ccc(C(CC)C(=O)Oc2ccc(S(C)(=O)=O)cc2)cc1 (stereo not drawn) [Compound 3]
4,120,CCC(C(=O)Oc1ccc(SCC(C)(C)C(=O)O)cc1)c1ccc(C(CC)C(=O)Oc2ccc(SCC(C)(C)C(=O)O)cc2)cc1 (stereo not drawn) [Compound 4]
5,40,CCC(C(=O)Oc1ccc([S+]([O-])CC(C)(C)C(=O)O)cc1)c1ccc(C(CC)C(=O)Oc2ccc([S+]([O-])CC(C)(C)C(=O)O)cc2)cc1 (stereo not drawn) [Compound 5]
6,28,CCC(C(=O)Oc1ccc(S(=O)(=O)CC(C)(C)C(=O)O)cc1)c1ccc(C(CC)C(=O)Oc2ccc(S(=O)(=O)CC(C)(C)C(=O)O)cc2)cc1 (stereo not drawn) [Compound 6]
7,74,CCC(C(=O)Oc1ccc([S+]([O-])C(C)(C)C(=O)O)cc1)c1ccc(C(CC)C(=O)Oc2ccc([S+]([O-])C(C)(C)C(=O)O)cc2)cc1 (stereo not drawn) [Compound 8]
8,37,CCC(C(=O)Oc1ccc(S(=O)(=O)C(C)(C)C(=O)O)cc1)c1ccc(C(CC)C(=O)Oc2ccc(S(=O)(=O)C(C)(C)C(=O)O)cc2)cc1 (stereo not drawn) [Compound 9]
9,253,CC(C)(CSc1ccc(OC(=O)C(C)(C)c2ccc(C(C)(C)C(=O)Oc3ccc(SCC(C)(C)C(=O)O)cc3)cc2)cc1)C(=O)O [Compound 10]
10,23,CC(C)(C[S+]([O-])c1ccc(OC(=O)C(C)(C)c2ccc(C(C)(C)C(=O)Oc3ccc([S+]([O-])CC(C)(C)C(=O)O)cc3)cc2)cc1)C(=O)O (stereo not drawn) [Compound 11]
11,835,CC(C)(C(=O)Oc1ccc(SCC(=O)O)cc1)c1ccc(C(C)(C)C(=O)Oc2ccc(SCC(=O)O)cc2)cc1 [Compound 13]
12,77,CC(C)(C(=O)Oc1ccc(S(=O)(=O)CC(=O)O)cc1)c1ccc(C(C)(C)C(=O)Oc2ccc(S(=O)(=O)CC(=O)O)cc2)cc1 [Compound 15]
13,198,CCC(C(=O)Oc1ccc(SCC(C)(C)C(=O)O)cc1)c1cccc(C(CC)C(=O)Oc2ccc(SCC(C)(C)C(=O)O)cc2)c1 (stereo not drawn) [Compound 19]
14,36,CCC(C(=O)Oc1ccc(S(=O)(=O)CC(C)(C)C(=O)O)cc1)c1cccc(C(CC)C(=O)Oc2ccc(S(=O)(=O)CC(C)(C)C(=O)O)cc2)c1 (stereo not drawn) [Compound 21]
15,64,CCC(C(=O)Oc1ccnc(SC)n1)c1ccc(C(CC)C(=O)Oc2ccnc(SC)n2)cc1 (stereo not drawn) [Compound 28]
